Here are results for two molecules from US8815593B2, “Induction of human embryonic stem cell derived cardiac pacemaker or chamber-type cardiomyocytes by manipulation of neuregulin signaling” (University of Washington, priority 2008, dated 2014).

Common to all, as to assay type: cell-based, human
The subject of test [1] is hESC-CM cultures. Nature of the test: action potential (AP) phenotyping of hESC-CMs under current clamp after manipulation of NRG-1β/ErbB signaling. How it is done: At 14 days following induction with activin A, hESC-CMs were dispersed using 0.1 U/ml of dispase (Invitrogen) with 63 U/ml DNase I (Invitrogen) and replated at low density onto 0.5% gelatin-coated glass coverslips. After a few days of additional culture, the spontaneously generated action potentials (APs) of the hESC-CMs were recorded using a HEKA EPC-10 amplifier (HEKA, Lambrecht, Germany), operated in current-clamp mode. Note that the EPC-10 has a true “voltage follower” circuit, similar to a classical microelectrode amplifier (Magistretti et al., “Modalities of Distortion of Physiological Voltage Signals by Patch-Clamp Amplifiers: a Modeling Study,” Biophys J. 74(2 Pt 1):831-842 (1998) and Magistretti et al., “Action Potentials Recorded with Patch-Clamp Amplifiers: Are They Genuine?” Trends Neurosci. 19(12):530-534 (1996), which are hereby incorporated by reference in their entirety). […] Patch pipettes with a resistance of 2-4 MΩ were used; cells with a series resistance of >10 MΩ were discarded. […] Action potential parameters were analyzed by an individual blinded to culture conditions, using Patchmaster (HEKA) and Igor Pro software. […]

For test [2], the system named is cGATA6-EGFP-transduced hESC-CM cultures. The experiment in a line: cGATA6-EGFP reporter: fraction of EGFP+ putative nodal cells. The following applies: cGATA6-EGFP transduced hESC-CMs, ~50% transduction efficiency; control 15%. The method, then:
Prior to lentiviral transduction, hESC-CMs were replated onto glass coverslips as described for electrophysiological studies and allowed to recover for 4-5 days. Cells were then exposed to cGATA6-EGFP lentivirus (at 5000 LPs/cell, added to their usual RPMI-B27 medium) for 12 hours. […] Transduced cell preparations were then used in either electrophysiological or immunocytochemical studies at 3-4 days post-transduction.
Dissociated hESC-CMs were cultured on glass cover slips, fixed, and immunostained as previously described (Laflamme et al., “Cardiomyocytes Derived from Human Embryonic Stem Cells in Pro-Survival Factors Enhance Function of Infarcted Rat Hearts,” Nat. Biotechnol. 25(9):1015-1024 (2007), McDevitt et al., “Proliferation of Cardiomyocytes Derived from Human Embryonic Stem Cells is Mediated Via the IGF/PI 3-Kinase/Akt Signaling Pathway,” J Mol Cell Cardiol. 39(6):865-873 (2005), Laflamme et al., “Formation of Human Myocardium in the Rat Heart from Human Embryonic Stem Cells,” Am J. Pathol. 167(3):663-671 (2005), and Minami et al., “Extracardiac Progenitor Cells Repopulate Most Major Cell Types in the Transplanted Human Heart,” Circulation 112(19):2951-2958 (2005), which are hereby incorporated by reference in their entirety). […] Each experimental condition was assayed in triplicate, and a minimum of 500 nuclei were counted per sample. […]

The test system of test [3] is hESC-CM cultures. The experiment in a line: quantitative RT-PCR of cardiac subtype-specific genes. Conditions: treated hESC-CMs vs control, normalized to GAPDH. The method, then: Total RNA was prepared by lysing cell preparations with the Qiagen RNEasy kit, followed by DNase treatment. After confirming the quality of the RNA using an Agilent Bioanalyzer 2100, it was reverse-transcribed into cDNA using the Superscript III first-strand cDNA synthesis kit (Invitrogen). Tables 2 and 3 list the primers used for semi-quantitative and quantitative RT-PCR reactions, respectively. All primer pairs were designed to be intron-spanning Quantitative real-time PCR reactions were performed using the SYBR green dye system and an Applied Biosystems 7900HT instrument. Cycling conditions were 10 minutes at 95° C., and 40 cycles of 30 seconds at 95° C., 30 seconds at 55° C., and 30 seconds at 72° C. mRNA levels were normalized using GAPDH as an internal control, and adult human heart cDNA was always run in parallel as a positive control.
In the preceding experiments, manipulation of NRG-1β/ErbB signaling changed the relative abundance of the two cardiac subtypes, as determined by both AP phenotyping and activation of the nodal-specific cGATA6-EGFP genetic reporter. To confirm these findings with an independent, molecular approach, quantitative RT-PCR was used to compare the expression of 18 subtype-specific genes in control, AG1478, and NRG-1β ligand-treated hESC-CM cultures (see Table 4). […] In sum, activation of NRG-1β/ErbB signaling increased the expression of genes associated with working cardiomyocytes, while its blockade with AG1478 increased the expression of genes associated with the nodal subtype.

Test [4] has as its system Akt and ERK kinases in hESC-CM cultures. Nature of the test: Western blot analysis of Akt and Erk phosphorylation. The following applies: hESC-CMs day 10 post-induction, 10 minutes, 10 or 100 ng/ml NRG-1β, with or without 25 μg/ml anti-NRG1β antibody. How it is done:
For this, hESC-CMs (˜5×10^6 […] per well) were treated on day 10 post-induction with 0, 10, or 100 ng/ml NRG-1β (R&D Systems) in the presence or absence of 25 μg/ml anti-NRG1β neutralizing antibody (R&D Systems) for 10 minutes. After treatment, cells were rinsed twice with ice-cold PBS and lysed for 20 minutes on ice with 250 μl of extraction buffer (25 mM Tris-HCl (pH 7.4), 150 mM NaCl, 2 mM EDTA, 10 mM Na2SO4, and 1% Triton X-100 supplemented just prior to use with 50 mM NaF, 1 mM sodium orthovanadate, 1 mM phenylmethylsulfonyl fluoride, and a protease inhibitor cocktail (Sigma)). Lysates were collected with a cell scraper, placed in microcentrifuge tubes, vortexed for 3 minutes at 4° C., and then spun at 4° C. for 20 minutes at 12,000 g to discard cell debris. The resultant protein lysates were then denatured at 95° C. for 10 minutes and loaded (at 30 μg/lane) onto a denaturing 10% SDS/polyacrylamide gel, electrophoresed, and then transferred onto a PVDF membrane. The PVDF blot was blocked for 1 hour at room temperature in 1×TBST (150 mM NaCl, 10 mM Tris-HCl (pH 7.4), and 0.1% Tween) plus 5% nonfat milk, probed overnight with anti-phosphorylation Akt and anti-phosphorylation Erk1/2 antibodies (Cell Signaling), and then incubated with peroxidase-conjugated goat anti-mouse IgG antibody (Sigma). […]

Take `COc1cc2ncnc(Nc3cccc(Cl)c3)c2cc1OC` [AG1478]: the “proportion of cells exhibiting a nodal-like AP phenotype” value in the test with hESC-CM cultures [1] (differentiating hESC-CM cultures, control 21%) worked out at 52%. The “percentage of EGFP+ putative nodal cells” value in test [2] is 25%. In addition, in the test with hESC-CM cultures [3], the “expression of HCN4 relative to control cells” value is 2.0 fold and the “expression of Tbx-3 (TBX3) relative to control cells” value is recorded as 2.6 fold.

B1: NRG1β ligand: NRG-1β (R&D Systems), exogenous neuregulin-1β agonist of ErbB receptors (protein)
chain: TSHLVKCAEKEKTFCVNGGECFMVKDLSNPSRYLCKCPNEFTGDRCQNYVMASFYKHLGIEFMEAEELYQK
In the case of B1, the “effect on fraction of nodal cells (AP phenotyping)” value in the test on hESC-CM cultures [1] (exogenous NRG-1β 100 ng/ml, day 5 to 12 or continuously after day 5, versus control) is on record as “a trend toward the opposite effect (i.e., a reduction in the fraction of nodal cells)”. Also, the “expression of NPPA (atrial natriuretic factor, ANF) relative to controls” value in the test on hESC-CM cultures [3] came out at 2.6 fold. In addition, the “phosphorylation (activation) of Akt and ERK kinases” value in test [4] was “phosphorylated”; in test [4] (listed as NRG-1β agonist), “activation of both kinases”.
